# According to PubChem BioAssay AID330 (DTP/NCI, 2004):
# Several values for one entry are separate records, joined by “and”; a condition that tells them apart may be missing. Equal values may be shown once. Inconclusive results and toxic doses are left out.
# Test system: P388 leukemia ip, CD2F1 mice, survival T/C
# Assay: NCI In Vivo Anticancer Drug Screen. Data for tumor model P388 Leukemia (intraperitoneal) in CD2F1 (CDF1) mice
# Details: endpoint: median survival time, higher = longer survival
# Procedure, shortened: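 Mice carrying the transplanted tumor received test compound or vehicle. Survival was recorded in each group, and the value is the treated-group measurement divided by that of the vehicle-treated control group.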
# [1] = dose: 50.0 mg/kg/injection, schedule: Q04DX003 (ip), vehicle: saline with Tween-80
# [2] = dose: 100.0 mg/kg/injection, schedule: Q04DX003 (ip), vehicle: saline with Tween-80
# [3] = dose: 50.0 mg/kg/injection, schedule: Q01DX009 (ip), vehicle: Klucel (hydroxypropylcellulose) (HPC)
# [4] = dose: 100.0 mg/kg/injection, schedule: Q01DX009 (ip), vehicle: Klucel (hydroxypropylcellulose) (HPC)
# [5] = dose: 50.0 mg/kg/injection, schedule: Q01DX005 (ip), vehicle: Klucel (hydroxypropylcellulose) (HPC)
# [6] = dose: 100.0 mg/kg/injection, schedule: Q01DX005 (ip), vehicle: Klucel (hydroxypropylcellulose) (HPC)
# [7] = dose: 200.0 mg/kg/injection, schedule: Q01DX005 (ip), vehicle: Klucel (hydroxypropylcellulose) (HPC)
# [8] = dose: 60.0 mg/kg/injection, schedule: Q01DX005 (ip), vehicle: saline with Tween-80
# [9] = dose: 120.0 mg/kg/injection, schedule: Q01DX005 (ip), vehicle: saline with Tween-80
# [10] = dose: 6.25 mg/kg/injection, schedule: Q01DX009 (ip), vehicle: saline
# [11] = dose: 240.0 mg/kg/injection, schedule: Q01DX005 (ip), vehicle: saline with Tween-80
smiles,measurement,setting,value
Nc1ncnc(N2C(=S)OC3C(O)C(CO)OC32)c1N (centres undefined),T/C,"dose: 25.0 mg/kg/injection, schedule: Q04DX003 (ip), vehicle: water",100 % of control
same,T/C,"dose: 50.0 mg/kg/injection, schedule: Q04DX003 (ip), vehicle: water",95 % of control
same,T/C,"dose: 100.0 mg/kg/injection, schedule: Q04DX003 (ip), vehicle: water",95 % of control
same,T/C,"dose: 200.0 mg/kg/injection, schedule: Q04DX003 (ip), vehicle: water",113 % of control
same,T/C,"dose: 400.0 mg/kg/injection, schedule: Q04DX003 (ip), vehicle: water",95 % of control
ClCCN1c2ccc3ccccc3c2Sc2ccc3ccccc3c21,T/C,"dose: 50.0 mg/kg/injection, schedule: Q01DX005 (ip), vehicle: saline with Tween-80",95 % of control
same,T/C,"dose: 100.0 mg/kg/injection, schedule: Q01DX005 (ip), vehicle: saline with Tween-80",89 % of control
C/C(=C\C(=O)c1ccc(F)cc1)N1CCN(c2ccc(F)cc2)CC1,T/C,"dose: 50.0 mg/kg/injection, schedule: Q01DX005 (ip), vehicle: other",96 % of control
same,T/C,"dose: 100.0 mg/kg/injection, schedule: Q01DX005 (ip), vehicle: other",93 % of control
O=[N+]([O-])c1ccsc1SSc1sccc1[N+](=O)[O-],T/C,"dose: 25.0 mg/kg/injection, schedule: Q04DX003 (ip), vehicle: saline with Tween-80",102 % of control
same,T/C,[1],102 % of control
same,T/C,"dose: 100.0 mg/kg/injection, schedule: Q01DX001 (ip), vehicle: Klucel (hydroxypropylcellulose) (HPC)",102 % of control
same,T/C,[2],100 % of control
same,T/C,"dose: 200.0 mg/kg/injection, schedule: Q01DX001 (ip), vehicle: Klucel (hydroxypropylcellulose) (HPC)",102 % of control
same,T/C,"dose: 400.0 mg/kg/injection, schedule: Q01DX001 (ip), vehicle: Klucel (hydroxypropylcellulose) (HPC)",96 % of control
O=S(=O)(c1ccc(NC(=S)N2CCCCC2)cc1)N1CCCCC1,T/C,[3],95 % of control
same,T/C,[4],88 % of control
same,T/C,"dose: 200.0 mg/kg/injection, schedule: Q01DX009 (ip), vehicle: Klucel (hydroxypropylcellulose) (HPC)",86 % of control
Nc1nc2nn(-c3ccc(C(=O)NC(CCC(=O)O)C(=O)O)cc3)nc2c(=O)[nH]1 (centres undefined),T/C,"dose: 12.5 mg/kg/injection, schedule: Q01DX009 (ip), vehicle: Klucel (hydroxypropylcellulose) (HPC)",95 % of control
same,T/C,"dose: 25.0 mg/kg/injection, schedule: Q01DX009 (ip), vehicle: Klucel (hydroxypropylcellulose) (HPC)",94 % of control
same,T/C,[3],94 % of control
same,T/C,[4],96 % of control
CCOC(=O)C1=C(C)NC(=O)NC1c1ccc(N(C)C)cc1 (centres undefined),T/C,[5],90 % of control
same,T/C,[6],95 % of control
same,T/C,[7],97 % of control
COC(=O)c1nc(=S)[nH]c(C(=O)OC)c1C(=O)c1ccc(O)cc1O,T/C,[8],99 % of control
same,T/C,[9],98 % of control
O=C(Nc1ccc(Cl)cc1)NN1CCCCCC1,T/C,"dose: 25.0 mg/kg/injection, schedule: Q04DX002 (ip), vehicle: saline with Tween-80",103 % of control
same,T/C,"dose: 50.0 mg/kg/injection, schedule: Q04DX002 (ip), vehicle: saline with Tween-80",98 % of control
O=C1CC(c2ccc(OCN(CCCl)CCCl)cc2)CC(=O)C1CN(CCCl)CCCl (centres undefined),T/C,"dose: 2.0 mg/kg/injection, schedule: Q01DX009 (ip), vehicle: Klucel (hydroxypropylcellulose) (HPC)",117 % of control
same,T/C,"dose: 4.0 mg/kg/injection, schedule: Q01DX009 (ip), vehicle: Klucel (hydroxypropylcellulose) (HPC)",160 % of control
same,T/C,"dose: 8.0 mg/kg/injection, schedule: Q01DX009 (ip), vehicle: Klucel (hydroxypropylcellulose) (HPC)",153 % of control
same,T/C,"dose: 16.0 mg/kg/injection, schedule: Q01DX009 (ip), vehicle: Klucel (hydroxypropylcellulose) (HPC)",166 % of control and 173 % of control
same,T/C,"dose: 32.0 mg/kg/injection, schedule: Q01DX009 (ip), vehicle: Klucel (hydroxypropylcellulose) (HPC)",190 % of control
CCOC(=O)C(N)Cc1ccc(N(CCCl)CCCl)cc1 (centres undefined),T/C,"dose: 0.5 mg/kg/injection, schedule: Q04DX003 (ip), vehicle: saline",180 % of control
same,T/C,"dose: 1.0 mg/kg/injection, schedule: Q04DX003 (ip), vehicle: saline",195 % of control
same,T/C,"dose: 2.0 mg/kg/injection, schedule: Q04DX003 (ip), vehicle: saline",250 % of control
same,T/C,"dose: 3.13 mg/kg/injection, schedule: Q01DX009 (ip), vehicle: saline",272 % of control
same,T/C,[10],100 % of control
same,T/C,"dose: 6.25 mg/kg/injection, schedule: Q04DX003 (ip), vehicle: saline",272 % of control
same,T/C,"dose: 12.5 mg/kg/injection, schedule: Q04DX003 (ip), vehicle: saline",240 % of control
same,T/C,"dose: 63.0 micrograms/kg/injection, schedule: Q04DX003 (ip), vehicle: saline",113 % of control
same,T/C,"dose: 125.0 micrograms/kg/injection, schedule: Q04DX003 (ip), vehicle: saline",113 % of control
CC1=N/C(=C\c2ccccc2O)C(=O)O1,T/C,[5],104 % of control
same,T/C,[6],98 % of control
same,T/C,[7],98 % of control
Cc1cccnc1I,T/C,[8],98 % of control
same,T/C,[9],99 % of control
same,T/C,[11],101 % of control
CCCCCCCN(CCCCCCC)CC(O)c1cc2ccc(Cl)cc2nc1-c1ccc(Cl)cc1 (centres undefined),T/C,"dose: 100.0 mg/kg/injection, schedule: Q01DX001 (ip), vehicle: saline sonified",90 % of control
same,T/C,"dose: 200.0 mg/kg/injection, schedule: Q01DX001 (ip), vehicle: saline sonified",90 % of control
same,T/C,"dose: 400.0 mg/kg/injection, schedule: Q01DX001 (ip), vehicle: saline sonified",104 % of control
O=C(NC1COB(c2cccc([N+](=O)[O-])c2)OC1c1ccc([N+](=O)[O-])cc1)C(Cl)Cl (centres undefined),T/C,"dose: 60.0 mg/kg/injection, schedule: Q01DX005 (ip), vehicle: Klucel (hydroxypropylcellulose) (HPC)",98 % of control
same,T/C,"dose: 120.0 mg/kg/injection, schedule: Q01DX005 (ip), vehicle: Klucel (hydroxypropylcellulose) (HPC)",98 % of control
same,T/C,"dose: 240.0 mg/kg/injection, schedule: Q01DX005 (ip), vehicle: Klucel (hydroxypropylcellulose) (HPC)",93 % of control
COC(=O)c1nnn(-c2ccccc2C(C)C)c1C(=O)c1ccccc1,T/C,[8],94 % of control
same,T/C,[9],109 % of control
same,T/C,[11],104 % of control
CCCC[N+](CCCC)(CCCC)CCCC.O=C([O-])[O-].O=C([O-])[O-].[Co+3].[NH-]CC[NH-],T/C,"dose: 50.0 mg/kg/injection, schedule: Q01DX009 (ip), vehicle: suspension in saline",113 % of control and 123 % of control
same,T/C,"dose: 100.0 mg/kg/injection, schedule: Q01DX009 (ip), vehicle: suspension in saline",120 % of control
Oc1ccccc1C=NCc1ccccc1,T/C,"dose: 25.0 mg/kg/injection, schedule: Q01DX009 (ip), vehicle: saline with Tween-80",107 % of control
same,T/C,"dose: 50.0 mg/kg/injection, schedule: Q01DX009 (ip), vehicle: saline with Tween-80",119 % of control
same,T/C,"dose: 100.0 mg/kg/injection, schedule: Q01DX009 (ip), vehicle: saline with Tween-80",114 % of control
same,T/C,"dose: 200.0 mg/kg/injection, schedule: Q01DX009 (ip), vehicle: saline with Tween-80",114 % of control
CC1(C)CN(C(C)(C)C)COC1OC1OCN(C(C)(C)C)CC1(C)C (centres undefined),T/C,"dose: 37.5 mg/kg/injection, schedule: Q01DX009 (ip), vehicle: saline with Tween-80",118 % of control
same,T/C,"dose: 75.0 mg/kg/injection, schedule: Q01DX009 (ip), vehicle: saline with Tween-80",109 % of control
same,T/C,"dose: 150.0 mg/kg/injection, schedule: Q01DX009 (ip), vehicle: saline with Tween-80",119 % of control
C=CCOC(=O)CCCC1=NC2=CC=CC3=NC(C)=NC(=N1)N23,T/C,[1],105 % of control
same,T/C,[2],99 % of control
same,T/C,"dose: 200.0 mg/kg/injection, schedule: Q04DX003 (ip), vehicle: saline with Tween-80",91 % of control
O=C1C=C(NCc2ccccc2)CCC1,T/C,"dose: 1.56 mg/kg/injection, schedule: Q01DX009 (ip), vehicle: saline",109 % of control
same,T/C,"dose: 3.12 mg/kg/injection, schedule: Q01DX009 (ip), vehicle: saline",113 % of control
same,T/C,[10],100 % of control
COc1ccc2nc3cc(Cl)ccc3c(SCC(=O)OCC(=O)[C@@]3(O)CC[C@H]4[C@@H]5CCC6=CC(=O)C=C[C@]6(C)[C@H]5C(=O)C[C@@]43C)c2c1,T/C,"dose: 50.0 mg/kg/injection, schedule: Q01DX009 (ip), vehicle: saline",118 % of control
same,T/C,"dose: 100.0 mg/kg/injection, schedule: Q01DX009 (ip), vehicle: saline",108 % of control
same,T/C,"dose: 200.0 mg/kg/injection, schedule: Q01DX009 (ip), vehicle: saline",110 % of control
O=C(NC(=S)c1ccc(Br)cc1)Nc1ccccc1,T/C,"dose: 2.5 mg/kg/injection, schedule: Q01DX009 (ip), vehicle: saline with Tween-80",90 % of control
same,T/C,"dose: 5.0 mg/kg/injection, schedule: Q01DX009 (ip), vehicle: saline with Tween-80",103 % of control
same,T/C,"dose: 10.0 mg/kg/injection, schedule: Q01DX009 (ip), vehicle: saline with Tween-80",88 % of control
